The record followed here is patent US6806359B1, “Hormone receptor compositions and methods” (The Salk Institute for Biological Studies, priority 1986, dated 2004).

The test system of assay [1] is rat GH 5′-flanking sequences in rat pituitary GC2 cells. Briefly: T3 responsiveness of rat GH 5′-flanking sequence-CAT gene fusions transfected into GC2 cells. The class given is cell-based. To be noted: for stimulation of CAT activity: GH −235 to −45 fused to tk promoter. An excerpt: […]. To overcome this problem, a rat prolactin enhancer element^11 was fused proximal to fragments of the rat GH gene containing 181 and 110 bp of 5′ flanking information. […].
To assay 3′ deletions, fragments of the rat Gh gene were fused to the herpes simplex virus thymidine kinase (HSV tk) promoter. A fragment of the Gh gene extending from position −235 to position −45 from the CAP site produced 2.5-and 2.3-fold stimulations of CAT activity when fused to the tk promoter in native and inverse orientation, respectively (FIG. 57). […]. […].
Thyroid hormone responsiveness of various gene fusions containing rat GH 5′-flanking sequences. FIG. 56, Responsiveness of 5′ and 3′ deletions of the rat GH gene. 5′-deleted fragments of the rat GH gene were fused to the CAT gene in a pSV2CAT-based vector^18, in which the SV40 origin of replication and promoter were removed. […]. The illustrated 3′-deleted fragments were fused to a tk promoter fragment, extending from position −197 to position +54 and placed proximal to the CAT gene in the same vector. […]. Error limits represent the standard error of the mean. Each construction was assayed two to five times. An represents SV40 polyadenylation sites. FIG. 58, Messenger RNA transcription initiation site analysis. The diagram indicates the […] primer complimentary to nucleotides 67 to 89 of the CAT coding sequence used to determine the CAP site of transcripts of plasmids containing the tk promoter. GC cells were transfected with test plasmids and hormone treated as described for the experiments presented in panels a and b. Primer extension analysis was performed on 50 micrograms total RNA. Lanes A and B represent the extension product from cells transfected with a plasmid containing the GH fragment extending from positions 235 to 45 from the CAP site fused to the tk promoter. Lanes C and D represent the extension product from cells transfected with a plasmid containing the tk promoter alone. No extension products were observed. […].
Fusions containing the rat prolactin enhancer were made by excising this fragment (corresponding to rat prolactin sequence nucleotide positions 1831-1530) from plasmid pPSS^11 and inserting it in reverse orientation proximal to the 5′ deletions of the growth hormone element. Fusions containing the HSV tk promoter were made by excising fragments of the GH enhancer from the plasmid GPO (ref. 11) and inserting them into the BamHI and SalI sites of a pSV2CAT-based expression vectors proximal to the tk promoter at positions −197 to +54. Alternatively, the GH enhancer was placed proximal to the promoter at positions −107 to +54 in a pUC8-based vector^20 by insertion into the BamHI and SalI polylinker sites. Site-directed mutagenesis of the GH enhancer element was performed by inserting the fragment from 235-45 bp from the CAP site into the BamHI and SalI sites of M13 mp18. A 21-base oligonucleotide was synthesized which corresponded to antisense GH nucleotides −188 to −157, in which nucleotides −177 to −166 were deleted and replaced by an A nucleotide. This oligonucleotide was used to delete bases −177 to −166 in the GH enhancer using the procedure of Kunkel^21. CAT activity was determined by radioassay of methylated chloramphenicol derivatives after thin layer chromatography^19. Primer extension was by the method of Elsholtz, et al.^12

For assay [2] the test system is unchanged. Described as above. The class given is cell-based. To be noted: 5′ deletion to −107 with rat prolactin enhancer.
Assay [3] concerns hGR. Kind of assay: hGR functional assay: CAT activity in CV-1 cells cotransfected with pRShGR alpha (or mutant) and pMTVCAT. The class given is cell-based, human. To be noted: percentage of wild-type hGR activity; CV-1 cells cultured 2 days with 10 nM DEX. The source says: The assay system and strategy used to study the expression of functional hGR from the cloned cDNA (See Experimental Section I) is shown in FIG. 11. In these experiments, a glucocorticoid-responsive promoter/enhancer element linked to a reporter gene was introduced into a receptor-negative cell. […] For our assay, we chose to use the MTV LTR fused to the sequence coding for chloramphenicol acetyltransferase (CAT) (EC2.3.1.28). […] Cotransfection of pMTVCAT (or pGMCAT) with a receptor expression plasmid provides functional receptors that allow induction of CAT activity upon treatment of the transfected cells with glucocorticoid hormone. In addition, biochemical studies such as steroid binding activity and Western blot analysis of the expressed receptors can be performed simultaneously.
(§1) The cells are then cultured in the presence or absence of hormone. CV-1 cells were used to monitor induction of CAT activity, and COS cells were used to measure steroid-binding capacity and the expression of hGR protein.
CAT assays were performed as indicated in Experimental Procedures (See Section II. F.). C, chloramphenicol; AC, 3-acetylchloramphenicol.
The levels of CAT activity were plotted as percentages of the maximal response observe in a particular experiment.
Each plasmid preparation used for transfection was purified using two consecutive CsCl-EtBr equilibrium gradients. […]

Assay [4] concerns hGR. Kind of assay: Steroid binding assay ([^3H]DEX) in cytosol of COS cells transfected with hGR or mutants. On the set-up: species or system human. To be noted: steroid-binding capacity as percentage of wild-type hGR. The protocol: as §1
COS cells were lysed in hypotonic buffer containing 10 mM Tris-HCl (pH 7.5), 10 mM NaCl, 1 mM EDTA, 5 micrograms/ml antipain, 5 micrograms/ml leupeptin, and 0.5 mM PMSF by Dounce homogenization and centrifuged 10 min. at 15,000×g to yield the cytosolic fraction. Incubations were performed in hypotonic buffer adjusted to 100 mM NaCl and contained 100 micrograms of protein from the cytosolic fraction and 2×10^−8[^3H]DEX (Amersham, 95 Ci/mmol) in total volume of 200 microliters. Nonspecific binding was measured by the addition of 2×10^−6 unlabeled DEX. Reactions were carried out at 0° C. for 2 hr., followed by a 5 min. incubation with 20 microliters of 50% dextran-coated charcoal (10:1 activated charcoal:dextran) and centrifugation at 15,000×g for 2 min. at 4° C. Supernatants were counted by liquid scintillation methods in a Beckman LS-7800 liquid scintillation spectrophotometer. Each assay usually gave 2500-3000 cpm [^3H] labeled steroid; unlabeled DEX competed for 70% of this binding.

Turning to `N[C@@H](Cc1cc(I)c(Oc2ccc(O)c(I)c2)c(I)c1)C(=O)O` [T3, 3,5,3′-triiodo-L-thyronine], the “regulation of CAT expression by T3” value in assay [1] (5′ deletion to −235 of rat GH gene fused to CAT) was 4.6 fold. Moreover, in assay [1] (5′-deleted fragment to −181 with rat prolactin enhancer), the “induction of CAT expression by T3” value was 2.6 fold. Besides, the “increase of correctly initiated CAT mRNA (primer extension)” value in assay [1] (235-45 bp GH fragment fused to tk promoter, 10^−9M T3) is “about 4 fold”. The results for the “stimulation of CAT activity” value in assay [1] (inverse orientation) and in assay [1] (native orientation) were 2.3 fold and 2.5 fold, respectively. In assay [1] (construction G29TK), the “stimulation of CAT expression” value is given as 2.9 fold. Besides, the “stimulation of CAT expression (in words)” value in assay [1] (construction G293TK, three tandem repeats) is “five-fold”; in assay [1] (wild-type GH enhancer fused to tk promoter), “ninefold”. Also, the “effect on CAT expression (in words)” value in assay [1] (mutant G delta 166/177 fused to tk promoter) is given as “no effect”. Besides, in assay [2], the “T3 regulation of CAT expression (in words)” value is given as “abolished T3 regulation”.
Consider “hGR alpha: wild-type human glucocorticoid receptor, alpha form, 777 amino acids”, for which, in assay [3], the “CAT Activity (%)” value was 100%. Also, the “DEX Binding (%)” value in assay [4] came to 100%.
